Assays:
AD38 cells = assay: Viability of AD38 cells (Promega CellTiter-Glo); format: cell-based; conditions: 10 μM compound, 6 days, CellTiter-Glo luminescence normalized to DMSO control (100%)
Summary of the method: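 AD38 cells were seeded at 50,000/well on collagen-coated plates and treated with compound added as a 10× solution in 10% DMSO for 6 days at 37° C. Viability was measured by CellTiter-Glo luminescence in tetracycline-free medium with 2% FBS and 1% DMSO, and expressed as percent of DMSO control.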

[1] = system: HBV viral load in AD38 cells; assay: Viral load production in AD38 cells, quantitative PCR of the core sequence in supernatant; format: cell-based; conditions: Hepatitis B virus, 144 h, 10 μM compound, 6 days at 37° C., supernatant qPCR, relative to DMSO control; read-out: AD38 Viral Load (%) (VL with cmpd/VL in DMSO control) at 10 μM

Compound | AD38 Viability Normalized Result (cmpd/DMSO %) at 10 μM (AD38 cells) [%] | activity at 10 µM [1] [%]
Cc1ncc(CNC(=O)c2ccc3c(=O)c4ccccc4c(=O)[nH]c3c2)s1 [compound 1592] | 99 | 1.3
CN(C)CCOc1ccc(-c2ncc(CNC(=O)c3ccc4c(c3)NC(=O)c3ccccc3S4(=O)=O)s2)cc1 [compound 1584] | 101 | 1.4
CN1CCC[C@@H]1COc1ccc(-c2ncc(CNC(=O)c3ccc4c(c3)NC(=O)c3ccccc3S4(=O)=O)s2)cc1 [compound 11131, (R)—N-((2-(4-((1-methylpyrrolidin-2-yl)methoxy)phenyl)thiazol-5-yl)methyl)-11-oxo-10,11-dihydrodibenzo [b, f] [1, 4] thiazepine-8-carboxamide 5,5-dioxide] | 88 | 2
O=C(NCc1cnc(-c2ccccc2)s1)c1ccc2c(c1)NC(=O)c1ccccc1S2(=O)=O [compound 1525] | 104 | 0.2
O=C1CCc2cc(-c3ncc(CNC(=O)c4ccc5c(c4)NC(=O)c4ccccc4S5(=O)=O)s3)ccc2N1 [compound 1951] | 101 | 1.8
O=C(NCc1cnc(-c2ccc(O)cn2)s1)c1ccc2c(c1)NC(=O)c1ccccc1S2(=O)=O [compound 1879, N-((2-(5-hydroxypyridin-2-yl)thiazol-5-yl)methyl)-11-oxo-10, 11-dihydrodibenzo [b, f] [1, 4] thiazepine-8-carboxamide 5,5-dioxide] | 104 | 7.2
O=C(NCc1cnc(-c2ccc(C(=O)NC3CC3)cc2)s1)c1ccc2c(c1)NC(=O)c1ccccc1S2(=O)=O [compound 1949] | 99 | 2.9
O=C(NCc1cnc(-n2ccnn2)s1)c1ccc2c(c1)NC(=O)c1ccccc1S2(=O)=O [compound 11047] | 96 | 1.4
O=C(NCc1cnc(N2CCCCC(O)C2)s1)c1ccc2c(c1)NC(=O)c1ccccc1S2(=O)=O (stereo not shown) [compound 1908] | 94 | 7
N#Cc1ccc(-c2ncc(CNC(=O)c3cc4c(cc3O)S(=O)(=O)c3ccccc3C(=O)N4)s2)cc1 [1901-B, N-((2-(4-cyanophenyl)thiazol-5-yl)methyl)-7-hydroxy-11-oxo-10, 11-dihydrodibenzo [b, f] [1, 4] thiazepine-8-carboxamide 5,5-dioxide] | 108 | 69.4
O=C1CCN(c2ncc(CNC(=O)c3ccc4c(c3)NC(=O)c3ccccc3S4(=O)=O)s2)CC1 [compound 1906] | 89 | 7.8
O=C(NCc1cnc(-c2ccc(OCCCN(CCO)CCO)cc2)s1)c1ccc2c(c1)NC(=O)c1ccccc1S2(=O)=O [compound 1998] | 99 | 3.7
COc1ccc(Cc2ncc(CNC(=O)c3ccc4c(c3)NC(=O)c3ccccc3S4(=O)=O)s2)cc1 [1823-A, N-((2-(4-methoxybenzyl)thiazol-5-yl)methyl)-11-oxo-10, 11-dihydrodibenzo [b, f] [1, 4] thiazepine-8-carboxamide 5,5-dioxide] | 92 | 5.8
O=C(NCc1cnc(-c2ccc(CCCCN3CCCCC3)cc2)s1)c1ccc2c(c1)NC(=O)c1ccccc1S2(=O)=O [compound 11055] | 94 | 4
Cl.N=C(N)c1ccc(-c2ncc(CNC(=O)c3ccc4c(c3)NC(=O)c3ccccc3S4(=O)=O)s2)cc1 [compound 1653, N-((2-(4-carbamimidoylphenyl)thiazol-5-yl)methyl)-11-oxo-10, 11-dihydrodibenzo [b, f] [1, 4] thiazepine-8-carboxamide 5,5-dioxide hydrochloride] | 108 | 65.4
O=C(NCc1cnc(N2CCC(O)CC2)s1)c1ccc2c(c1)NC(=O)c1ccccc1S2(=O)=O [compound 1859] | 89 | 2.7
CN(C)CCSc1ncc(CNC(=O)c2ccc3c(c2)NC(=O)c2ccccc2S3(=O)=O)s1 [compound 1590] | 95 | 6.2
CC(C)c1cnn(-c2ncc(CNC(=O)c3ccc4c(c3)NC(=O)c3ccccc3S4(=O)=O)s2)c1 [11117-A] | 110 | 0.3
Cc1ncc(CNC(=O)c2ccc3c(c2)NC(=O)c2ccccc2C3C)s1 (stereo not shown) [compound 1548] | 97 | 0.4
O=C(NCc1cnc(-c2ccncc2)s1)c1ccc2c(c1)NC(=O)c1ccccc1S2(=O)=O [compound 1625] | 96 | 51.9
Cl.O=C(NCc1cnc(-c2ccc(O[C@@H]3CCNC3)cc2)s1)c1ccc2c(c1)NC(=O)c1ccccc1S2(=O)=O [compound 11103, (R)-11-oxo-N-((2-(4-(pyrrolidin-3-yloxy)phenyl)thiazol-5-yl)methyl)-10, 11-dihydrodibenzo [b, f] [1, 4] thiazepine-8-carboxamide 5,5-dioxide hydrochloride] | 102 | 2.5
CC(C)(C)NCCCCc1ccc(-c2ncc(CNC(=O)c3ccc4c(c3)NC(=O)c3ccccc3S4(=O)=O)s2)cc1 [compound 11054] | 102 | 14.1
CN1c2ccc(C(=O)NCc3cnc(-c4ccc(O)cc4)s3)cc2NC(=O)c2ccccc21 [compound 1732] | 100 | 18.8
O=C(NCc1cnc(-c2ccc(O)cc2)s1)c1ccc2c(c1)NC(=O)c1ccccc1S2 [compound 1605] | 96 | 0.7
O=C(NCc1cnc(-c2cc(F)ccn2)s1)c1ccc2c(c1)NC(=O)c1ccccc1S2(=O)=O [compound 11050] | 96 | 0.7
N#Cc1ccc(-c2ncc(CNC(=O)c3ccc4c(c3)NC(=O)c3ccccc3N4CCO)s2)c(F)c1 [compound 11079] | 102 | 3.3
Nc1ccc(-c2ncc(CNC(=O)c3ccc4c(c3)NC(=O)c3ccccc3S4(=O)=O)s2)nc1 [compound 1886, N-((2-(5-aminopyridin-2-yl)thiazol-5-yl)methyl)-11-oxo-10, 11-dihydrodibenzo [b, f] [1, 4] thiazepine-8-carboxamide 5,5-dioxide] | 106 | 1.5
O=C1CCCCN(c2ncc(CNC(=O)c3ccc4c(c3)NC(=O)c3ccccc3S4(=O)=O)s2)C1 [compound 1909, 11-oxo-N-((2-(3-oxoazepan-1-yl)thiazol-5-yl)methyl)-10, 11-dihydrodibenzo [b, f] [1, 4] thiazepine-8-carboxamide 5,5-dioxide] | 95 | 1.3
CC(C)(O)Cc1ccccc1-c1ncc(CNC(=O)c2ccc3c(c2)NC(=O)c2ccccc2S3(=O)=O)s1 [compound 1840] | 107 | 3.2

Reference: patent US11814376B2, “Hepatitis b core protein modulators” (Assembly Biosciences, Inc., priority 2015, dated 2023)
